Source: article PMC10879502, “Linking ATP and allosteric sites to achieve superadditive binding with bivalent EGFR kinase inhibitors” (Communications Chemistry, 2024)
Values joined by “and” are separate entries in the source; they are usually repeats but may differ in a detail not shown here. Equal entries are not always repeated. Where two headings read alike, the source gives them in different places. Blank lines part the entries; values can stand above or below the compound they belong to.

How the values were obtained:
[1] = biological target: T1, EGFR L858R/T790M (LRTM) kinase domain (Homo sapiens, UniProt P00533, L858R/T790M); test: HTRF KinEASE-TK kinase activity assay; assay type: biochemical; settings: for Linking coefficient E: LRTM IC50, upper limit; for activity: LRTM, read-out: percent inhibition
T1 construct: The EGFR kinase domain (residues 696–1022) was cloned into pTriEx; 6xHis (N, cleaved yes); GST (N, cleaved yes); made in house; host or cells: SF9 insect cells, baculovirus

MERTK = biological target: T2, MERTK (Homo sapiens, UniProt Q12866); test: KINOMEscan; assay type: binding; settings: 1 μM
T2 construct: purchased Eurofins DiscoverX Corporation

PDGFRA = PDGFRA (Homo sapiens, UniProt P16234); test: KINOMEscan; assay type: binding; settings: 1 μM
MAP3K15 = biological target: T3, MAP3K15 (Homo sapiens, UniProt Q6ZN16); test: KINOMEscan; assay type: binding; settings: 1 μM
T3 construct: purchased Eurofins DiscoverX Corporation

IRAK1 = biological target: T4, IRAK1 (Homo sapiens, UniProt P51617); test: KINOMEscan; assay type: binding; settings: 1 μM
T4 construct: purchased Eurofins DiscoverX (KINOMEscan)
T4 sequence (P51617 whole entry): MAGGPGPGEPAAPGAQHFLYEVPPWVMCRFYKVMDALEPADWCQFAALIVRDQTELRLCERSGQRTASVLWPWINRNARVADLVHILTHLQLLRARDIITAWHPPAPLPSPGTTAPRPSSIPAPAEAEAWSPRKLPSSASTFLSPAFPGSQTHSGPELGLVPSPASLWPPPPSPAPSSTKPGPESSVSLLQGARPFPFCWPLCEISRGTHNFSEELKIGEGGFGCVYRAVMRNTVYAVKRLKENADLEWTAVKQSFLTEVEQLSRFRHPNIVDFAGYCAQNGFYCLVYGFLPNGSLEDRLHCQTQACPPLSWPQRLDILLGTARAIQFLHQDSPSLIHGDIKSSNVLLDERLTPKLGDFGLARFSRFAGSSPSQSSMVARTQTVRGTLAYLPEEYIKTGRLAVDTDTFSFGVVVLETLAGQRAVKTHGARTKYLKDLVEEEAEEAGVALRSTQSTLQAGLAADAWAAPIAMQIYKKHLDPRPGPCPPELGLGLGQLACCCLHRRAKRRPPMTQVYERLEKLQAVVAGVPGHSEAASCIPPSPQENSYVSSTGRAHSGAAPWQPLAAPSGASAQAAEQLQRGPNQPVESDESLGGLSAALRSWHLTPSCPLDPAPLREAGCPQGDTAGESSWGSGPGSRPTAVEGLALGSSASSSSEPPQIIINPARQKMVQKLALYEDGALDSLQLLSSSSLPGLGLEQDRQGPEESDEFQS

PIP5K1A = PIP5K1A (Homo sapiens, UniProt Q99755); test: KINOMEscan; assay type: binding; settings: 1 μM
Chain of PIP5K1A (Q99755 whole entry): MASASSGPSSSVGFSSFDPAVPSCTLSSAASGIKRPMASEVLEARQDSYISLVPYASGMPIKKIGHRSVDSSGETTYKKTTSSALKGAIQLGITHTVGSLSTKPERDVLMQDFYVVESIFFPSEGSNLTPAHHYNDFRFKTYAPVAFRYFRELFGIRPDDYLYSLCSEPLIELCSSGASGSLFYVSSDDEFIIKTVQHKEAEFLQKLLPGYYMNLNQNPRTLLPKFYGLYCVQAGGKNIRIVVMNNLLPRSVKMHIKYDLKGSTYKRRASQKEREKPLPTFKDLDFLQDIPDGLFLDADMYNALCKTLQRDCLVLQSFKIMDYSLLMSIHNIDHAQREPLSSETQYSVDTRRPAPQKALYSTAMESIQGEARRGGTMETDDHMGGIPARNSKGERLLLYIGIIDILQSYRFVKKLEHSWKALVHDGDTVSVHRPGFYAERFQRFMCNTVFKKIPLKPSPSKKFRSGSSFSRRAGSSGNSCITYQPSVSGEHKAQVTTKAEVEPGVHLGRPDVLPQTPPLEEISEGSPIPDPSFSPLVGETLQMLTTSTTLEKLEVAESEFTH

CSNK2A2 = biological target: T5, CSNK2A2 (Homo sapiens, UniProt P19784); test: KINOMEscan; assay type: binding; settings: 1 μM
T5 construct: purchased Eurofins DiscoverX Corporation

PIK3CA(C420R) = PIK3CA(C420R) (Homo sapiens, UniProt P42336, C420R); test: KINOMEscan; assay type: binding; settings: 1 μM
PRKD3 = PRKD3 (Homo sapiens, UniProt O94806); test: KINOMEscan; assay type: binding; settings: 1 μM
Chain of PRKD3 (O94806 whole entry): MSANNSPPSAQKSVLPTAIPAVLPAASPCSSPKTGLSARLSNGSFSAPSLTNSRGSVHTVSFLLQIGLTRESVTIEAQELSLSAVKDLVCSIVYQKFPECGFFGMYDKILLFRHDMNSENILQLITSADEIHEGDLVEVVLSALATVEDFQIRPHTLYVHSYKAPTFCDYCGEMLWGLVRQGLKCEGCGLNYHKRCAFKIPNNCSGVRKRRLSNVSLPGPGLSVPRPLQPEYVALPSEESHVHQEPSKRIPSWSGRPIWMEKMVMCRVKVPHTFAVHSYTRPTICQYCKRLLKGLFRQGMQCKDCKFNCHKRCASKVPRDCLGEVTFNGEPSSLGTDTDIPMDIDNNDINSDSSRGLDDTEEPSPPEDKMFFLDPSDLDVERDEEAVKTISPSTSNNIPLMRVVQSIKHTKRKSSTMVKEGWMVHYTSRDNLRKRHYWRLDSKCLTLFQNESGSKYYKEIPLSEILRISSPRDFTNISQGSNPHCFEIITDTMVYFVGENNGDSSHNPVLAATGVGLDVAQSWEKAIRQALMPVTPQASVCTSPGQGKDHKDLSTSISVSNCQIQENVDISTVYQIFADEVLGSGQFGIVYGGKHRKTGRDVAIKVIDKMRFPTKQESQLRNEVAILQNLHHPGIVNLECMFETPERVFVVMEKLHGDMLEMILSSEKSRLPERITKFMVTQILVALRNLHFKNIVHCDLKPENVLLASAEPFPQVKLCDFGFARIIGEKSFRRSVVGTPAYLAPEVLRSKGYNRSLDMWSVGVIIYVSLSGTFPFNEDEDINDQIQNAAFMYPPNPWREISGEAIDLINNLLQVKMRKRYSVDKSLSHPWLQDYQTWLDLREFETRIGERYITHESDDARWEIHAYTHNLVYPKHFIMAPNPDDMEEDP

CSF1R-autoinhibited = CSF1R-autoinhibited (Homo sapiens, UniProt P07333); test: KINOMEscan; assay type: binding; settings: 1 μM
MEK5 = biological target: T6, MEK5 (Homo sapiens, UniProt Q13163); test: KINOMEscan; assay type: binding; settings: 1 μM
T6 construct: purchased Eurofins DiscoverX Corporation

[2] = biological target: T7, ABL1(E255K)-phosphorylated (Homo sapiens, UniProt P00519, E255K); test: KINOMEscan; assay type: binding; settings: 1 μM
T7 construct: purchased Eurofins DiscoverX Corporation

TIE1 = biological target: T8, TIE1 (Homo sapiens, UniProt P35590); test: KINOMEscan; assay type: binding; settings: 1 μM
T8 construct: purchased Eurofins DiscoverX Corporation

STK33 = STK33 (Homo sapiens, UniProt Q9BYT3); test: KINOMEscan; assay type: binding; settings: 1 μM
Chain of STK33 (Q9BYT3 whole entry): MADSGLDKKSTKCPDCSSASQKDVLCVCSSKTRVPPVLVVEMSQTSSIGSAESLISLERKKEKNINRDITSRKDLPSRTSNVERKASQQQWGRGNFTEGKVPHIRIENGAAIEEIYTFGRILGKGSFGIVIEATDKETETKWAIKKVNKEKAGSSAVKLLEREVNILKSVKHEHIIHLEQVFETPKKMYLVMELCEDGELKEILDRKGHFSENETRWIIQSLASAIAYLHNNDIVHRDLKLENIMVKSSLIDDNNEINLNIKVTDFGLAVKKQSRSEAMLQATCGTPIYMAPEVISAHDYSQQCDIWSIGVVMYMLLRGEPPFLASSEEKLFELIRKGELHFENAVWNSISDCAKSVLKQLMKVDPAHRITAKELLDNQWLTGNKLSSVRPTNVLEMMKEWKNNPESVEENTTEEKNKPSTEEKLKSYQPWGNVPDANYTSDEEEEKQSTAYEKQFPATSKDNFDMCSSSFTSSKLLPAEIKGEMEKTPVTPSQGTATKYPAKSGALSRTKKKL

GRK1 = biological target: T9, GRK1 (Homo sapiens, UniProt Q15835); test: KINOMEscan; assay type: binding; settings: 1 μM
T9 construct: purchased Eurofins DiscoverX Corporation

KIT-autoinhibited = biological target: T10, KIT-autoinhibited (Homo sapiens, UniProt P10721); test: KINOMEscan; assay type: binding; settings: 1 μM
T10 construct: purchased Eurofins DiscoverX Corporation

RIPK2 = RIPK2 (Homo sapiens, UniProt O43353); test: KINOMEscan; assay type: binding; settings: 1 μM
FGFR3(G697C) = FGFR3(G697C) (Homo sapiens, UniProt P22607, G697C); test: KINOMEscan; assay type: binding; settings: 1 μM
CDK8 = CDK8 (Homo sapiens, UniProt P49336); test: KINOMEscan; assay type: binding; settings: 1 μM
CAMKK1 = biological target: T11, CAMKK1 (Homo sapiens, UniProt Q8N5S9); test: KINOMEscan; assay type: binding; settings: 1 μM
T11 construct: purchased Eurofins DiscoverX Corporation (KINOMEscan)
T11 sequence (Q8N5S9 whole entry): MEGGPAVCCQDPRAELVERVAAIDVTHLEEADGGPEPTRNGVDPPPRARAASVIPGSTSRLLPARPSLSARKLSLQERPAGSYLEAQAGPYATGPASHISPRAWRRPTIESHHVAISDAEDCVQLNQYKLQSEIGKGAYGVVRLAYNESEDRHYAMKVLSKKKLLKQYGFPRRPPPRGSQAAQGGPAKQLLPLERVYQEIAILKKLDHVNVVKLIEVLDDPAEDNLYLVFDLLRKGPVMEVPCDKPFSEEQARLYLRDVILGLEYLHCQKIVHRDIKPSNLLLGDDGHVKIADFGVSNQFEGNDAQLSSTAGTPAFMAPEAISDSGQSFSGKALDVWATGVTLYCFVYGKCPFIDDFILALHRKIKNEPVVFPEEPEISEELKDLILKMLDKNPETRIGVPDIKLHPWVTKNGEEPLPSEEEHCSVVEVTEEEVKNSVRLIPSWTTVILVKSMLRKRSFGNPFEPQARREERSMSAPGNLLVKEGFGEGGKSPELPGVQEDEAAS

FGFR1 = FGFR1 (Homo sapiens, UniProt P11362); test: KINOMEscan; assay type: binding; settings: 1 μM
MLK3 = biological target: T12, MLK3 (Homo sapiens, UniProt Q16584); test: KINOMEscan; assay type: binding; settings: 1 μM
T12 construct: purchased Eurofins DiscoverX Corporation

RIPK4 = RIPK4 (Homo sapiens, UniProt P57078); test: KINOMEscan; assay type: binding; settings: 1 μM
CHEK1 = CHEK1 (Homo sapiens, UniProt O14757); test: KINOMEscan; assay type: binding; settings: 1 μM
CDK11 = CDK11 (Homo sapiens, UniProt Q9BWU1); test: KINOMEscan; assay type: binding; settings: 1 μM
CDKL5 = CDKL5 (Homo sapiens, UniProt O76039); test: KINOMEscan; assay type: binding; settings: 1 μM
ERBB3 = ERBB3 (Homo sapiens, UniProt P21860); test: KINOMEscan; assay type: binding; settings: 1 μM
Chain of ERBB3 (P21860 20-1342): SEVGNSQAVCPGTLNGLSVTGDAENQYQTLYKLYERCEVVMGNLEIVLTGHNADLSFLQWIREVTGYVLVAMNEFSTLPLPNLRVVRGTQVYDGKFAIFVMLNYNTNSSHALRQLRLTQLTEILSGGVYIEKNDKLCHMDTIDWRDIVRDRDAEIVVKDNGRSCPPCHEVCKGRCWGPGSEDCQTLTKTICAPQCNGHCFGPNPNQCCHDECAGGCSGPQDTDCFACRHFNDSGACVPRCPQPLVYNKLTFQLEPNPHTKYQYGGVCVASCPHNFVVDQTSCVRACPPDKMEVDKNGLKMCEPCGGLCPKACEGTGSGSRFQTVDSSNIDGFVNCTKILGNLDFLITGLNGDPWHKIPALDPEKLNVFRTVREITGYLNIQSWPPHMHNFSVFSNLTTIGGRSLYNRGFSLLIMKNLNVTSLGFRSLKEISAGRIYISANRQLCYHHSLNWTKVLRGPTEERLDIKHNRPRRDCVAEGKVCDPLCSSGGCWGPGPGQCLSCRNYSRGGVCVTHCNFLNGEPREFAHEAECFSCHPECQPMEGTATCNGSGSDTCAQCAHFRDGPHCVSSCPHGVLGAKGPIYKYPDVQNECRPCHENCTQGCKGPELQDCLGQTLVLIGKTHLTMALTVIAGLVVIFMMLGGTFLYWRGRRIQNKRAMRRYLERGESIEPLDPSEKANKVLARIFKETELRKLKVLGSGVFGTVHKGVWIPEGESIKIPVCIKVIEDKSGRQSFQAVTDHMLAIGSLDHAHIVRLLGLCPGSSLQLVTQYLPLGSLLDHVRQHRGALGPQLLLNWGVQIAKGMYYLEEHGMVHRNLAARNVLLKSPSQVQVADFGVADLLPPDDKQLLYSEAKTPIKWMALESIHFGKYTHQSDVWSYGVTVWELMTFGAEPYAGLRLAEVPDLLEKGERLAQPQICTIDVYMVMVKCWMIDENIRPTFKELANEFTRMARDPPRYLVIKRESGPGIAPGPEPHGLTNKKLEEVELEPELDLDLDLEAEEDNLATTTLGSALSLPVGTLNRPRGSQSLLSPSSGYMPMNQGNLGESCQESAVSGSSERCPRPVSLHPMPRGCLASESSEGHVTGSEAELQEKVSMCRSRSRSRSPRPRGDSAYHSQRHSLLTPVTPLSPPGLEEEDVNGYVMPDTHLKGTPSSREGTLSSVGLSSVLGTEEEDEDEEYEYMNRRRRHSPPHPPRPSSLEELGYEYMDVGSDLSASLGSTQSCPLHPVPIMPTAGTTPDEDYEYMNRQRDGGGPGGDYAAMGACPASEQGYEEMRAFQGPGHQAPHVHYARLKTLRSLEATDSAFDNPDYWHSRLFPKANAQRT

[3] = biological target: RPS6KA4(Kin.Dom.2-C-terminal) (Homo sapiens, UniProt O75676); test: KINOMEscan; assay type: binding; settings: 1 μM
AMPK-alpha2 = AMPK-alpha2 (Homo sapiens, UniProt P54646); test: KINOMEscan; assay type: binding; settings: 1 μM
CAMK2A = biological target: T13, CAMK2A (Homo sapiens, UniProt Q9UQM7); test: KINOMEscan; assay type: binding; settings: 1 μM
T13 construct: purchased Eurofins DiscoverX Corporation (KINOMEscan)

SNRK = SNRK (Homo sapiens, UniProt Q9NRH2); test: KINOMEscan; assay type: binding; settings: 1 μM
PFCDPK1(P.falciparum) = PFCDPK1(P.falciparum) (Plasmodium falciparum, UniProt P62344); test: KINOMEscan; assay type: binding; settings: 1 μM
Chain of PFCDPK1(P.falciparum) (P62344 whole entry): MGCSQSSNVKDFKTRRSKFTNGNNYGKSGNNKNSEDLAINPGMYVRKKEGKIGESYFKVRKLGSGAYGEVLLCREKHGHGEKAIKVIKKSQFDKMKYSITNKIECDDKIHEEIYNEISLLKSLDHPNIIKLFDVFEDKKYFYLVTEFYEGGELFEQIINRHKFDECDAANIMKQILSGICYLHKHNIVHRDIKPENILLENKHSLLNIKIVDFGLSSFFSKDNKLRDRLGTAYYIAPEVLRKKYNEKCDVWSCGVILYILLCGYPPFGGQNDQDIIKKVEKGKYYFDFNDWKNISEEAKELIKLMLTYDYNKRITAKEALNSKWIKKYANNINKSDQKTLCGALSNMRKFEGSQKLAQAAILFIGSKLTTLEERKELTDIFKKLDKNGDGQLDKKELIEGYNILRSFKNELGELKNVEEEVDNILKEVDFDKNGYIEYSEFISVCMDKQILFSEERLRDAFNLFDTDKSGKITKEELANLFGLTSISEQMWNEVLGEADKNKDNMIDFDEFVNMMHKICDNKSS

PFTK1 = PFTK1 (Homo sapiens, UniProt O94921); test: KINOMEscan; assay type: binding; settings: 1 μM
TRKB = biological target: T14, TRKB (Homo sapiens, UniProt Q16620); test: KINOMEscan; assay type: binding; settings: 1 μM
T14 construct: purchased Eurofins DiscoverX Corporation

FLT3(D835H) = FLT3(D835H) (Homo sapiens, UniProt P36888, D835H); test: KINOMEscan; assay type: binding; settings: 1 μM
[4] = biological target: T15, ABL1(Y253F)-phosphorylated (Homo sapiens, UniProt P00519, Y253F); test: KINOMEscan; assay type: binding; settings: 1 μM
T15 construct: purchased Eurofins DiscoverX Corporation

EPHA4 = EPHA4 (Homo sapiens, UniProt P54764); test: KINOMEscan; assay type: binding; settings: 1 μM

Linking coefficient E ([1]; ATP fragment 5, allosteric fragment 10): < 1.0 M⁻¹
Linking coefficient E ([1]; ATP fragment 6, allosteric fragment 10): < 0. 59 M-1
activity ([1]; [Inhibitor] 1.3e-5 nM): 83.4% and 90.2% and 86.8%
activity ([1]; [Inhibitor] 3.18e-5 nM): 73.8% and 73.1% and 84.5%
activity ([1]; [Inhibitor] 7.78e-5 nM): 40.1% and 41.4% and 42.9%
activity ([1]; [Inhibitor] 0.000190441 nM, 190.4 fM): 19.1% and 19.2%
activity ([1]; [Inhibitor] 0.000465979 nM, 466 fM): 8.04% and 10%
activity ([1]; [Inhibitor] 0.00114018 nM, 1.14 pM): 5.9% and 5.75%
activity ([1]; [Inhibitor] 0.00278983 nM, 2.79 pM): 3.92% and 5.27%
activity ([1]; [Inhibitor] 0.00682626 nM, 6.826 pM): 3.83% and 4.05%
activity ([1]; [Inhibitor] 0.0167028 nM, 16.7 pM): 2.18% and 2.36%
IC50 ([1]; Table S1, read-out: IC50, LRTM): 0.051 to 0.064 nM and 0.051 to 0.059 nM
IC50 ([1]; enzyme 0.02 nM, ATP 100 µM, read-out: Biochemical EGFR IC50, LRTM): 0.059 ± 0.005 nM
linking coefficients ([1]; limits estimated from LRTM IC50 values): 0.5 to 1.0 M⁻¹
SMILES: CSc1nc(-c2cccc(NC(=O)c3cccc4c3NC(=O)c3ccccc3N4)c2)c(-c2ccnc(NC(C)=O)c2)[nH]1 [Compound 2]

SMILES: C=CC(=O)Nc1ccc(OC)c(Nc2cc(-c3[nH]c(CC)nc3-c3cccc(NC(=O)c4cccc5c4NC(=O)c4ccccc4N5)c3)ccn2)c1 [Compound 4]
POC (MERTK): 83% of control
POC (PDGFRA): 69% of control
POC (MAP3K15): 74% of control
POC (IRAK1): 85% of control
POC (PIP5K1A): 75% of control
POC (CSNK2A2): 58% of control
POC (PIK3CA(C420R)): 66% of control
POC (PRKD3): 67% of control
POC (CSF1R-autoinhibited): 69% of control
POC (MEK5): 41% of control
POC [2]: 65% of control
POC (TIE1): 100% of control
POC (STK33): 100% of control
POC (GRK1): 94% of control
POC (KIT-autoinhibited): 100% of control
POC (RIPK2): 62% of control
POC (FGFR3(G697C)): 100% of control
POC (CDK8): 81% of control
POC (CAMKK1): 85% of control
POC (FGFR1): 86% of control
POC (MLK3): 97% of control
POC (RIPK4): 100% of control
POC (CHEK1): 100% of control
POC (CDK11): 100% of control
POC (CDKL5): 98% of control
POC (ERBB3): 84% of control
POC [3]: 75% of control
POC (AMPK-alpha2): 56% of control
POC (CAMK2A): 65% of control
POC (SNRK): 82% of control
POC (PFCDPK1(P.falciparum)): 87% of control
POC (PFTK1): 90% of control
POC (TRKB): 100% of control
POC (FLT3(D835H)): 92% of control
POC [4]: 72% of control
POC (EPHA4): 95% of control
